The subject of one data set is PCT cells. Kind of data set: LIVE/DEAD cell viability of kidney cells under anoxia. The data set is classed as cell-based, murine. As for the experimental part:
HT22 mouse hippocampal neuronal cells were cultured in Dulbecco's modified Eagle's medium (DMEM; Gibco) supplemented with 10% FBS (Gibco), 100U/ml streptomycin, 100U/ml penicillin at 37 °C in 5% CO2/95% air. Renal PCT cells were obtained from primary cultures of murine proximal tubule segments and cultured as previously described (Melis, N. et al. Targeting eIF5A Hypusination Prevents Anoxic Cell Death through Mitochondrial Silencing and Improves Kidney Transplant Outcome. J Am Soc Nephrol 28, 811-822, doi:10.1681/ASN.2016010012 (2017)). Hypoxic or anoxic conditions were created by maintaining cell cultures at 37°C in a sealed "Bug-Box" anaerobic workstation (Ruskin Technologies). Oxygen Glucose Deprivation (OGD) was induced on HT22 cells placing them in glucose-free Hepes balanced salt solution without glucose (HBSS: NaCl 116mM, KCl 5.4mM, CaCl2 1.8mM, MgSO4 0.8mM, NAH2PO4 1mM, NaHCO3 26.2mM,; pH 7.2-7.4) in an hypoxic chamber filled with 98.5% N2 and 1.5% CO2 at 37°C for 3h. Upon removal of the cultures from the chamber, the growth medium was changed back to normal medium.
The Fluorescent LIVE/DEAD® Cell Viability/Cytotoxicity Assay Kit (Invitrogen, France) was used on PCT cells (24-well plates) according to the manufacturer's protocol. Fluorescent micrographs were recorded using an observer D1 microscope (Zeiss).
150,000 PCT cells were seeded in Petri dishes and transfected 24 h later with 50 nM serRS pooled siRNAs (Sigma MISSION®esiRNA targeting mouse serRS: EMU081851) using Lipofectamine™ 3000 transfection reagent (Invitrogen). Cells were exposed to various experimental procedures 24-48 h post-transfection, as described in the text.

Another data set has as its system mice. The data set can be described thus: tMCAo stroke model, infarct volume (cresyl violet). The data set is classed as in vivo. The following applies: SerHX pretreatment, '15 mM serHX group'; 60 min tMCAo; 24 h post-reperfusion; Fig.3C. As for the experimental part: Male 7-week old C57BL/6J mice (Janvier France Breeding) were housed in a temperature- and humidity-controlled animal facility with a 12-h light-dark cycle. Food and water were available ad libitum. All animal care and use were performed with in accordance to the policies of European Community Directive 86/609/EEC. All efforts were made to minimize animal suffering and the number of animals used.
tMCAO was performed 30 min after the final injection using a 6-0 coated filament (Doccol), as previously described (Bourourou, M., Heurteaux, C. & Blondeau, N. Alpha-linolenic acid given as enteral or parenteral nutritional intervention against sensorimotor and cognitive deficits in a mouse model of ischemic stroke. Neuropharmacology 108, 60-72, doi:10.1016/j.neuropharm.2016.04.040 (2016)). Control of tMCAo severity and reperfusion was evaluated monitoring the regional cerebral blood flow by laser-Doppler flowmetry. Infarct volume (mm^3) was mesured 24 h post-reperfusion on coronal frozen brain sections ([…]) stained by 1% cresyl violet in 0.25% acetic acid using a computer image analysis system.
Animals were randomly assigned to vehicle or serHX groups prepared for 3 experimental protocols. Protocol 1: Vehicle and serHX were administrated intraperitoneally (416 mM, 150µl IP) 48, 24, 2h before a 60min tMCAo. […]

The structures appear in SMILES notation. Like-named read-outs stand apart in the source and are kept apart here.

Consider `C[C@@H]1C[C@@H]([C@H](O)CC2CC(=O)NC(=O)C2)C(=O)[C@@H](C)C1` [cycloheximide], for which, in the data set on PCT cells, the living kidney cells was 64% and the “renal cell survival after 24 h of anoxia (in words)” value was “increased renal cell survival”.
Compound `NC(CO)C(=O)NO` (centres unmarked) [serine hydroxamate] returned a living kidney cells with PCT cells (anoxia 24 h, <0.1% O2, cells treated with the inhibitor beforehand, CHX 1 to 10 pg/ml, Fig.1A) of 95%. Also, the “reduction of infarct volumes compared with the vehicle group” value in the data set on mice was 30%.
Consider `N[C@@H](CO)C(=O)O` [serine], for which the “renal cell survival after 24 h of anoxia (in words)” value in the data set with PCT cells (anoxia 24 h, <0.1% O2, Fig.1A) is “no effect”.

(Values after patent EP3578180A1, “MODULATORS OF SERYL-TRNA SYNTHASE AND PHARMACEUTICAL COMPOSITIONS COMPRISING THE SAME FOR INCREASING CELL HYPOXIC TOLERANCE” (Centre National de la Recherche Scientifique (CNRS), priority 2018, dated 2019).)
